# Reference: paper PMC4820309, “Pseudopterosin A: Protection of Synaptic Function and Potential as a Neuromodulatory Agent” (Marine Drugs, 2016)
# Read-outs that look alike come from different tables or passages of the source.
# How the values were obtained:
# Drosophila larval NMJ [1] = assay: Synaptic transmission at the Drosophila larval NMJ during NaN3-induced oxidative stress (EJP recording until synaptic failure); type: cell-based, Drosophila melanogaster; settings: for average time until synaptic failure: mean ± SE
# Description: (§1) This study used wild-type Canton-S Drosophila melanogaster third instar wandering larvae (~110 h old). All larvae were raised within an equal population density in 170 mL plastic culture bottles (~100 flies per bottle) containing 50 mL of Nutri-Fly Bloomington Formulation (Genessee Scientific, San Diego, CA, USA) fly food in an incubator at 25 °C under a 12 h:12 h light–dark light cycle.
# (§2) Synaptic transmission was measured in Canton-S animals as previously described. Briefly, individual Canton-S third instar larvae were placed in a glass dissecting dish containing 2 mL of Schneider’s insect medium (Sigma, St. Louis, MO, USA) with the dorsal side up using standard insect pins. A longitudinal cut was made along the dorsal surface and the internal organs and central nervous system were removed to expose the underlying segmental muscles and nerves. An extracellular glass suction electrode was used to stimulate segmental nerves in muscle segments. The postsynaptic excitatory junction potential (EJP) was recorded from muscle 6 in abdominal segment A3 or A4 with a sharp intracellular glass recording electrode filled with 3 M KAc (~40 MΩ). The Schneider’s insect medium was replaced with 2 mL of hemolymph-like (HL-3) saline (1.5 mM CaCl2, 20 mM MgCl2, 5 mM KCl, 70 mM NaCl, 10 mM NaHCO3, 5 mM BES, 115 mM sucrose, 5 mM trehalose·2H2O) made fresh daily. EJP recordings were viewed with an oscilloscope and digitally stored using the Scope program (AD Instruments, Colorado Springs, CO, USA) for analysis. Evoked EJPs from repetitive stimulation (0.3 ms pulses delivered suprathreshold with a 1 Hz frequency) of both axons in larval muscle 6 were recorded in a stop-flow condition until synaptic transmission failure (amplitude < 1 mV).
# (§3) The same electrophysiology preparation assay described above was performed; however, Canton-S larvae were also exposed to oxidative stress, Trolox, and PsA. Oxidative stress was induced in larval preparations by adding either 1 mM H2O2 or 75 µM NaN3 to the HL-3 saline (all chemicals obtained from Sigma, St. Louis, MO, USA). Larvae subjected to oxidative stress and simultaneous drug treatment included one of the following agents dissolved in DMSO: 5 µM Trolox or 1 µM PsA. A dose-response assay from 0.5 to 10 µM was performed to determine the effective concentration of PsA to prolong synaptic transmission at the Drosophila larval NMJ during oxidative stress exposure (Figure 3).
# (§4) All synaptic function data were analyzed using SigmaPlot (Systat Software, San Jose, CA, USA) statistical analysis software. A one-way analysis of variance (ANOVA) test followed by a post hoc multiple comparisons procedure (Holm–Šidák) was used to compare significant differences across all treatment groups. Statistical significance (p < 0.05) was assigned using letter designations, where different letters show significant differences and the same letter assignments are not significant. The letter assignments begin with “A” representing the highest mean, “B” indicating the next highest, and so forth. All vertical bar charts are shown with the means ± SE.
# Drosophila larval NMJ [2] = assay: Synaptic transmission at the Drosophila larval NMJ during H2O2-induced oxidative stress (EJP recording until synaptic failure); type: cell-based, Drosophila melanogaster
# Description: as §1, §2, §3, §4
# [3] = Pharmacokinetics and tissue distribution of PsA in mice after IV bolus; type: in vivo, mouse; settings: for Kp / half-life: mouse, iv, 50 mg/kg; for AUC (AUClast): linear trapezoidal rule
# Description: After spiking with 10 µL of 17β-estradiol (100 µg/mL), 100 µL plasma or […] of tissue homogenate (prepared as above) was mixed with 300 µL of acetonitrile and vortex-mixed for 15 s. The samples were then extracted with 0.6 mL of ethyl acetate. After centrifugation for 10 min at 2000× g, the upper organic layer was removed and evaporated to dryness under reduced pressure in a vacuum centrifuge. The residue obtained was reconstituted in 80 µL acetonitrile with ultrasonic treatment for 1 min and the derivatization was performed as follows.
# The HPLC measurements were carried out using a Shimadzu LC-20AT liquid chromatography, which were coupled to a UV-SPD-M20A diode array detector. Data acquisition was performed using EZStart chromatography software package version 7.4. The chromatographic separation of NBD-Cl -derivative of PsA was achieved using Phenomenex Gemini 5 µm C18 110 Å column with a Phenomenex Security Guard C18 guard column (Torrance, CA, USA). The Mobile phase: A: 20 mM AcONH4 (pH = 7.4): ACN (2:1); B: CAN. Running program: 0–5 min, 80%–90% B; 5–7 min, 90% B; 7–12 min, 90%–100% B; 12–15 min, 100%–80% B. The mobile phase flow rate was 1.0 mL/min and the UV detection wavelength was set to 378 nm. Under the chromatographic conditions described, NBD-Cl derivatives of PsA and 17β-estradiol eluted at 7.3 and 5.5 min, respectively.
# (Pharsight, Mountain View, CA, USA).
# [4] = set-up: method as in PMID 22851883; settings: cited from earlier work
# mice = assay: Tolerability in mice after 50 mg/kg intravenous injection
# Description: Male NIH Swiss mice (25–30 g) were obtained from Harlan Laboratories, Inc. The mice were acclimated (5 mice/cage) for at least 7 days in an AAALAC (Association for Assessment and Accreditation of Laboratory Animal Care) approved animal care facility after arrival. […] The mice were fasted 12 h before receiving PsA and fed 4 h after drug administration. All mice received an IV bolus dose of PsA (50 mg/kg) via the tail vein. The mice (N = 3 per time point) were sacrificed under anesthesia and blood samples were collected at each time point (2, 5, 10, 15, 30, 60, 90, 120, 180, 240, 360, 480, 720 min) into heparinized microcentrifuge tubes. Plasma was prepared by centrifugation of blood at 1000 g for 15 min at 4 °C and stored at −80 °C until analysis. Tissues (brain, liver, and kidney) were also collected and homogenized (with 1:1 water for tissues) and stored at −80 °C until analysis. Plasma, liver, brain, and kidney were processed and analyzed as mentioned above. A calibration curve from each matrix was prepared on the day of analysis to calculate the concentrations of PsA present in the real samples. The concentration–time profiles of PsA in all matrices were plotted.
# [5] = male, NIH Swiss, mouse brain, 50 mg/kg IV
# [6] = male, NIH Swiss, mouse kidney, 50 mg/kg IV
# [7] = male, NIH Swiss, mouse liver, 50 mg/kg IV
# [8] = male, NIH Swiss, mouse plasma, 50 mg/kg IV bolus, estimate ± standard error
compound,measurement,setting,value
"Cc1c(C)c2c(c(C)c1O)CCC(C)(C(=O)O)O2 (centres unmarked) [Trolox, 6-hydroxy-2,5,7,8-tetramethylchromane-2-carboxylic acid, reference compound]",increase of synaptic activity,"Drosophila larval NMJ [1]; Trolox 5 µM during NaN3 75 µM exposure, vs NaN3 alone",25%
same,maximal time until synaptic breakdown,Drosophila larval NMJ [1]; Trolox 5 µM with NaN3 75 µM,64 min
same,average time until synaptic failure,Drosophila larval NMJ [1]; Trolox 5 µM with NaN3 75 µM,55 ± 3 min
same,increase of synaptic function,"Drosophila larval NMJ [2]; Trolox 5 µM during H2O2 1 mM exposure, vs H2O2 alone",60%
same,maximal time until synaptic breakdown,Drosophila larval NMJ [2]; Trolox 5 µM with H2O2 1 mM,85 min
same,average time until synaptic transmission failure,"Drosophila larval NMJ [2]; Trolox 5 µM with H2O2 1 mM, mean ± SE",80 ± 2 min
"CC(C)=C[C@H]1C[C@H](C)[C@H]2CC[C@H](C)c3c(O[C@@H]4OC[C@@H](O)[C@H](O)[C@H]4O)c(O)c(C)c1c32 [PsA, pseudopterosin A]",increase of synaptic tolerance,"Drosophila larval NMJ [1]; PsA 500 nM during NaN3 75 µM exposure, vs NaN3 alone",87%
same,average time until synaptic failure,Drosophila larval NMJ [1]; PsA 500 nM with NaN3 75 µM,83 ± 5 min
same,increase of synaptic functional tolerance,"Drosophila larval NMJ [1]; PsA 1 µM during NaN3 75 µM exposure, vs NaN3 alone",152%
same,maximal synaptic failure time,Drosophila larval NMJ [1]; PsA 1 µM with NaN3 75 µM,122 min
same,average time until synaptic failure,"Drosophila larval NMJ [1]; PsA 1 µM with NaN3 75 µM, failure = EJP amplitude < 1 mV",112 ± 4 min
same,increase of synaptic tolerance,"Drosophila larval NMJ [2]; PsA 1 µM during H2O2 1 mM exposure, vs H2O2 alone",26%
same,maximal synaptic failure time,Drosophila larval NMJ [2]; PsA 1 µM with H2O2 1 mM,70 min
same,average time until synaptic transmission failure,"Drosophila larval NMJ [2]; PsA 1 µM with H2O2 1 mM, mean ± SE",63 ± 2 min
same,Kp,"[3]; male, NIH Swiss, brain / plasma, mouse brain, 50 mg/kg IV, read-out: Relative Exposure (AUCtissue/AUCplasma)",1.36
same,half-life,"[3]; male, NIH Swiss, brain, mouse brain, 50 mg/kg IV, read-out: Half-life (converted)",175 min
same,Kp,"[3]; male, NIH Swiss, brain, liver, kidney / plasma, all tissues (brain, liver, kidney) vs plasma, 50 mg/kg IV, read-out: relative exposure (RE)",1.27 to 1.36
same,Kp,"[3]; male, NIH Swiss, brain, liver, kidney / plasma, brain, liver and kidney during the elimination phase, 50 mg/kg IV, read-out: tissue/plasma concentration ratios",> 1
same,Kp,"[3]; male, NIH Swiss, kidney / plasma, mouse kidney, 50 mg/kg IV, read-out: Relative Exposure (AUCtissue/AUCplasma)",1.28
same,half-life,"[3]; male, NIH Swiss, kidney, mouse kidney, 50 mg/kg IV, read-out: Half-life (converted)",239 min
same,Kp,"[3]; male, NIH Swiss, liver / plasma, mouse liver, 50 mg/kg IV, read-out: Relative Exposure (AUCtissue/AUCplasma)",1.27
same,half-life,"[3]; male, NIH Swiss, liver, mouse liver, 50 mg/kg IV, read-out: Half-life (converted)",190 min
same,half-life,"[3]; male, NIH Swiss, plasma, brain, liver, kidney, mouse plasma and tissues (brain, liver, kidney), 50 mg/kg IV, read-out: elimination half-life",180 to 240 min
same,half-life,"[3]; male, NIH Swiss, plasma, mouse plasma, 50 mg/kg IV bolus, two-compartment model, estimate ± standard error, read-out: Distribution Half-life (converted)",3 ± 0.3 min
same,half-life,"[3]; male, NIH Swiss, plasma, mouse plasma, 50 mg/kg IV bolus, two-compartment model, estimate ± standard error, read-out: Elimination Half-life (converted)",193 ± 18 min
same,Cmax,[3]; [5],10000 ng/g
same,Tmax,[3]; [5],30 min
same,Cmax,[3]; [6],3000 ng/g
same,Tmax,[3]; [6],90 min
same,Cmax,[3]; [7],10100 ng/g
same,Tmax,[3]; [7],10.2 min
same,AUC,[3]; [8],14400 ± 950 ng·h/mL
same,Cmax,[3]; [8],85.5 ± 7.64 µg/mL
same,clearance,[3]; [8],58 mL/min/kg
same,Vd,"[3]; male, NIH Swiss, mouse plasma, 50 mg/kg IV bolus, estimate ± standard error, read-out: Vss",10.1 ± 1.35 L/kg
same,time of peak mean concentration,"[3]; mouse brain, 50 mg/kg IV",30 min
same,AUC (AUClast),"[3]; mouse brain, 50 mg/kg IV",19.49 mg·h/kg
same,time of peak mean concentration,"[3]; mouse kidney, 50 mg/kg IV",90 min
same,AUC (AUClast),"[3]; mouse kidney, 50 mg/kg IV",18.37 mg·h/kg
same,time of peak mean concentration,"[3]; mouse liver, 50 mg/kg IV",10.2 min
same,AUC (AUClast),"[3]; mouse liver, 50 mg/kg IV",18.20 mg·h/kg
same,lipophilicity,[4],high lipophilicity
same,tolerability of the dose,mice,well tolerated
"[N-]=[N+]=[N-].[Na+] [NaN3, sodium azide, reference compound]",average time of synaptic activity until failure,"Drosophila larval NMJ [1]; NaN3 75 µM alone, control 130 ± 3 min",44 ± 3 min
same,maximal time of synaptic activity before failure,"Drosophila larval NMJ [1]; NaN3 75 µM alone, controls 136 or 139 min",52 min
"OO [H2O2, hydrogen peroxide]",average time until synaptic transmission failure,"Drosophila larval NMJ [2]; H2O2 1 mM alone, control 132 ± 3 min",50 ± 2 min
same,maximal time of synaptic activity before failure,"Drosophila larval NMJ [2]; H2O2 1 mM alone, controls 136 or 139 min",55 min
